# Data published in patent US20080242688A1, “Method 741” (ASTRAZENECA AB, priority 2007, published 2008).
# Several values for one entry are separate records, joined by “and”; a condition that tells them apart may be missing. Equal entries are not always repeated. Where two headings read alike, the source gives them in different places.
# Tests used:
# α7 receptor = α7 receptor (Rattus norvegicus, UniProt Q05941); assay: FFX hippocampal slice fEPSP, LTP; format: cell-based; details: 10 μM
# Text: In membranes prepared either from cultured, human recombinant α7 receptor-expressing, human embryonic kidney cells α7-HEK) or from rat brain hippocampus, AZD0328 competed with binding of an iodinated form of the high-affinity, selective α7 receptor antagonist snake toxin, [^125I]-α-bungarotoxin (BTX) (Table 1). In Xenopus oocytes injected with human, recombinant α7 receptor mRNA, AZD0328 activates whole cell currents (Table 2). […] In acutely dissociated rat hippocampal interneurons, AZD0328 elicits rapidly activated, desensitizing whole-cell current (Table 1), consistent with the known properties of rat neuronal α7 receptors. […] AZD0328 modulates synaptic function, consistent with the well-known role of α7 receptors as heteroreceptor modulators of glutamatergic and GABAergic synaptic function.
# [1] = Multiple dose PK/TK, minipig; format: in vivo; details: capsules fasted; for AUC / Cmax / Tmax: both sexes, Gottingen, minipig, in vivo, po
# Text: (§1) This section provides a summary of the pharmacokinetic and metabolism properties of AZD0328 derived from in vivo studies. […] The derived PK/TK parameters from these studies are presented in Table 4 for single dose studies (DMR4, 0619LR, 20030191PCR, DMO16, DMB10, DMW12, 50190, 0190DD and 03.330/1), and are presented in Table 5 multiple dose PK/TK studies (DMR4, 0612AR, DMB15, 50190, 0190DD and 0295AD).
# [2] = tested on: putative dopaminergic neurons within the VTA; assay: Ventral Tegmental Area dopamine neuron firing; format: in vivo; details: rat, iv, 0.17-0.5 h
# [3] = Single dose PK/TK, rhesus monkey; format: in vivo; details: for half-life: read-out: T½ (converted); for Vd: read-out: Vss
# Procedure: Pharmacokinetic studies in rats and monkeys were used to estimate the plasma concentrations associated with doses at which AZD0328 improved cognitive performance in these species. For example, in rhesus monkeys, two studies were conducted to determine the pharmacokinetic profile of AZD0328 after administration of 0.048 and 1.7 mg per kg AZD0328. […] We thus estimated the peak plasma concentrations in monkeys that received AZD0328 at 0.00048-0.016 mg per kg to be 0.6-18 nM. Similar studies and calculations in rats, when extended to mice, led us to estimate plasma concentrations at 0.001-0.1 mg per kg body weight to be 0.29-100 nM in these species.
# as §1
# Single dose PK/TK, rat = format: in vivo; details: for AUC / Cmax / Tmax: in vivo
# Text: as §1
# Pgp transporter = target: T1, Pgp transporter (Homo sapiens, UniProt P08183); assay: Digoxin transport, cell-based assay; format: in vitro ADME
# T1 construct: host or cells: unnamed cells
# Text: The 50% bioavailability of AZD0328 in human was conservatively selected based on the observations from rat, dog and monkey.
# [4] = Intestinal transit (charcoal meal, glass bead); details: in vivo; rat, oral; read-out: NOAEL on intestinal motility
# Procedure: Effects of AZD0328 on small intestinal and colorectal motility were investigated in rats using the charcoal meal test and the glass bead test, respectively (Table 3). In the first part, evaluating intestinal transit, a test meal containing charcoal as a non-absorbable marker was administered to rats. In the second part, effects of oral administration of AZD0328 on colorectal transit time was evaluated.
# [5] = target: T2, human recombinant 5-HT3A/B receptors (Homo sapiens, UniProt O95264+P46098); assay: Functional assays at recombinant human receptors; format: biochemical; details: recombinant human receptors in vitro
# T2 construct: expressed in transfected cells
# dog Purkinje fibre = assay: Dog isolated cardiac Purkinje fibres, action potential; details: 0.5 and 1 Hz
# Procedure: Effects of AZD0328 on cardiac action potentials were assessed in 4 dog Purkinje fibre preparations. (Table 3). The following action potential parameters were measured at the stimulation frequencies 0.5 and 1 Hz: action potential duration at 50% (APD50), 70% (APD70) and 90% (APD90) of repolarisation; the maximum velocity of the action potential upstroke (Vmax); the action potential amplitude (APA) and the resting membrane potential (RMP). At both stimulation frequencies, AZD0328 caused a concentration-dependent prolongation of APD50, APD70 and APD90, with significant effects at 5.6 μM and above. There was also an indication of proarrhythmic potential of the compound.
# [6] = 73.1 mg/kg, minipig 2F+2M, 50190, 73.1 mg/kg (338 μmol/kg), day 1
# [7] = 73.1 mg/kg, minipig 2F+2M, 50190, 73.1 mg/kg (338 μmol/kg), day 7
# [8] = 422 mg/kg, minipig 2F+2M, 50190, 422 mg/kg (1951 μmol/kg), day 7
# [9] = both sexes, in vivo, rhesus monkey 2M+2F, 03.330/1, iv 1.15 mg/kg (5.32 μmol/kg)
# [10] = both sexes, in vivo, rhesus monkey 2M+2F, 03.330/1, iv 3.85 mg/kg (17.8 μmol/kg)
# [11] = both sexes, plasma, im, rhesus monkey 2F+2M, A7AGBU1006, intramuscular 1.7 mg/kg (8 μmol/kg)
# [12] = both sexes, plasma, rhesus monkey 2M+2F, 03.330/1, iv 0.385 mg/kg (1.78 μmol/kg)
# [13] = male, plasma, im, rhesus monkey 3M, A7AGBU1010, intramuscular 0.048 mg/kg (0.22 μmol/kg)
# [14] = both sexes, rat 1M+1F, DMR4, single oral 2.16 mg/kg (10 μmol/kg)
# [15] = female, rat 2F, 0619LR, single oral 149 mg/kg (690 μmol/kg)
# [16] = male, rat 3M, 0619LR, single oral 201 mg/kg (930 μmol/kg)
# [17] = male, rat 4M, 20030191PCR, single oral 1.08 mg/kg (5 μmol/kg)
# [18] = male, rat 4M, 20030191PCR, single oral 32.4 mg/kg (150 μmol/kg)
# [19] = male, rat 4M, 20030191PCR, single oral 54.1 mg/kg (250 μmol/kg)
# [20] = male, rat 4M, 20030191PCR, single oral 86.5 mg/kg (400 μmol/kg)
# T1 sequence (P08183 whole entry): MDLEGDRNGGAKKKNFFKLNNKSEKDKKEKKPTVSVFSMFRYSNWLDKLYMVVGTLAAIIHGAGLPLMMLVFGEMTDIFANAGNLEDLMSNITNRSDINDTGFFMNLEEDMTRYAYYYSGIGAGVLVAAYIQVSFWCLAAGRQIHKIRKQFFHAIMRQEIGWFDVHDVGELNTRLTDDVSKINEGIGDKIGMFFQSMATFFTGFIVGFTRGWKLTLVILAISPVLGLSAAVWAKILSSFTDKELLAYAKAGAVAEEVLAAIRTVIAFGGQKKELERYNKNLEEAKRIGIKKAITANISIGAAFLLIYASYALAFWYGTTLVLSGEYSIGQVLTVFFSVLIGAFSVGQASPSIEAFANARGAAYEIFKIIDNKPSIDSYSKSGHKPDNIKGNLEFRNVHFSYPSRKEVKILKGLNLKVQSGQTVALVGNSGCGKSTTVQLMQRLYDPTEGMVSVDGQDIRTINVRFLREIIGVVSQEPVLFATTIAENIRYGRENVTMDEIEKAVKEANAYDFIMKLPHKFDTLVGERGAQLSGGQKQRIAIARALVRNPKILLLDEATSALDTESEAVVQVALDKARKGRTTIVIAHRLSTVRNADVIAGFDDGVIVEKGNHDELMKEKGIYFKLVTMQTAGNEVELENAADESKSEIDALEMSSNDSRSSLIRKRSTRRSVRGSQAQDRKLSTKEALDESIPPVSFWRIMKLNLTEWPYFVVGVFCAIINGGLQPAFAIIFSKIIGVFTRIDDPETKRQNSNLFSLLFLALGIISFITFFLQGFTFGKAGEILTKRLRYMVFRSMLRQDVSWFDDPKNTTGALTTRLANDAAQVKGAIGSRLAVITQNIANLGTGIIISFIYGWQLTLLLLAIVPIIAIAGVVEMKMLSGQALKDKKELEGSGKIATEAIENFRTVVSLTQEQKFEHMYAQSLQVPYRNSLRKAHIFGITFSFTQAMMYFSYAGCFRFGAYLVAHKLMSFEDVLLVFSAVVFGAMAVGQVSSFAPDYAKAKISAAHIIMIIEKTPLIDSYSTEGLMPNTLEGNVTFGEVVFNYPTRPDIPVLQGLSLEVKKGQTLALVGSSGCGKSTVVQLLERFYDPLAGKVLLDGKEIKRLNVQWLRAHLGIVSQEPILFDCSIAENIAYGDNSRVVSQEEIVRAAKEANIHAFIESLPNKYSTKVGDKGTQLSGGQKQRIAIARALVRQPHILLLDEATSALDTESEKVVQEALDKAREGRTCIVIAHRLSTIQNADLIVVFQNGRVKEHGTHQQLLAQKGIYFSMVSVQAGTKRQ
# T2 sequence (P46098 24-478): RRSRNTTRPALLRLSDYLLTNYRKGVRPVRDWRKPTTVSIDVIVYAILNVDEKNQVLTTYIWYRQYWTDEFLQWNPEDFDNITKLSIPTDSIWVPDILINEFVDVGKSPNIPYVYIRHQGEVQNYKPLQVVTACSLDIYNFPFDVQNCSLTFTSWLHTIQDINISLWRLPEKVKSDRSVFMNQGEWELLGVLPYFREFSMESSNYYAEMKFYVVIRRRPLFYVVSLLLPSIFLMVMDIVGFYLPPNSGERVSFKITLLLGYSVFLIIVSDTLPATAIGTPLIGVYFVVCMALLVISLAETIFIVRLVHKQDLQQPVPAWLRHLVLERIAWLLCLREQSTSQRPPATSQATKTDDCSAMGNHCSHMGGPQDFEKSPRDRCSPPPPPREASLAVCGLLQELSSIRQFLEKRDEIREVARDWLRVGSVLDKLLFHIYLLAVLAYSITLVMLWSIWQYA
# T2 sequence (O95264 22-441): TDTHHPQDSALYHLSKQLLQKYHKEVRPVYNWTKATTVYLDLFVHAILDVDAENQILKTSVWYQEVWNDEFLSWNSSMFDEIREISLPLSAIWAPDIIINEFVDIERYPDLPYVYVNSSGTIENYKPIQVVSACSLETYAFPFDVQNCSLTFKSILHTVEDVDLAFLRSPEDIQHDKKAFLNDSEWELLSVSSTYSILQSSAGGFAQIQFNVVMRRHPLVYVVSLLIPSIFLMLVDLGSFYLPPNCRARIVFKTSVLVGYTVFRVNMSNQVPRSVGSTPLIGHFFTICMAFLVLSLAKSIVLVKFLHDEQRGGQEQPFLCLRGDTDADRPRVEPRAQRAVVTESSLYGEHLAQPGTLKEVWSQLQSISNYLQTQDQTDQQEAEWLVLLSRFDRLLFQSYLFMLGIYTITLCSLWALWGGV
# Chain of α7 receptor (Q05941 23-502): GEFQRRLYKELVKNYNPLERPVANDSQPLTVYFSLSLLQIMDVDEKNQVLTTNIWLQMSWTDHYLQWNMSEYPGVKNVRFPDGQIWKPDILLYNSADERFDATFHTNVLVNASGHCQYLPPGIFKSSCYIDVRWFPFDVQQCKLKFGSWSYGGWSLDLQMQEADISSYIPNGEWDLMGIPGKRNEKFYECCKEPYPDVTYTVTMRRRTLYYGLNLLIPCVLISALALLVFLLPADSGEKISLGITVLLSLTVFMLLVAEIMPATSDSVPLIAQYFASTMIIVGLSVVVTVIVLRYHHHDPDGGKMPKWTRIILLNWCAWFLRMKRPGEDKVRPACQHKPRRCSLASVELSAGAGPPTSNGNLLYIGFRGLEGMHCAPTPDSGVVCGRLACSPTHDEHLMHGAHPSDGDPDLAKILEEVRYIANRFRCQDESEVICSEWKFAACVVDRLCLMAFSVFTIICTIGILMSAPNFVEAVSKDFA
structure (smiles),measurement,setting,value
"c1cnc2c(c1)C[C@@]1(CN3CCC1CC3)O2 [AZD0328, (R)-Spiro[1-azabicyclo[2.2.2]octane-3,2′(3′H)-furo[2,3-b]pyridine]]",fEPSP LTP,α7 receptor,153 % baseline
same,AUC,[1]; [6],3140 ng·h/mL and 14.5 µM·h
same,Cmax,[1]; [6],379 ng/mL and 1.75 µM
same,Tmax,[1]; [6],2 to 6 h
same,AUC,[1]; [7],4610 ng·h/mL and 21.3 µM·h
same,Cmax,[1]; [7],794 ng/mL and 3.67 µM
same,Tmax,[1]; [7],0.5 to 4 h
same,AUC,[1]; [8],25700 ng·h/mL to 27700 ng·h/mL and 119 µM·h to 128 µM·h
same,Cmax,[1]; [8],1420 ng/mL to 1570 ng/mL and 6.57 µM to 7.24 µM
same,Tmax,[1]; [8],12 h
same,AUC/dose,"[1]; minipig 2F+2M, 50190, 73.1 mg/kg (338 μmol/kg), day 1",0.0429 ± 0.0275
same,AUC/dose,"[1]; minipig 2F+2M, 50190, 73.1 mg/kg (338 μmol/kg), day 7",0.0630 ± 0.0288
same,AUC/dose,"[1]; minipig 2F+2M, 50190, 422 mg/kg (1951 μmol/kg), day 7",0.0610-0.0656
same,Dose active: Ventral Tegmental Area dopamine neuron firing - increased,[2],0.00138 mg/kg
same,half-life,"[3]; both sexes, in vivo, rhesus monkey 2M+2F, 03.330/1, iv 0.385 mg/kg (1.78 μmol/kg)",1.76 ± 0.43 h
same,clearance,[3]; [9],14.2 mL/min/kg
same,half-life,[3]; [9],1.96 ± 0.63 h
same,Vd,[3]; [9],2.52 ± 1.64 L/kg
same,clearance,[3]; [10],14.5 mL/min/kg
same,half-life,[3]; [10],2.14 ± 0.39 h
same,Vd,[3]; [10],2.85 ± 1.6 L/kg
same,AUC,[3]; [11],634 ± 81 ng·h/mL
same,Tmax,[3]; [11],0.25 h
same,Cmax,"[3]; both sexes, plasma, im, rhesus monkey 2F+2M, A7AGBU1006, intramuscular 1.7 mg/kg (8 μmol/kg), read-out: Cmax",430 ng/mL and 1.99 µM
same,half-life,[3]; [11],0.97 ± 0.12 h
same,clearance,[3]; [12],21 mL/min/kg
same,Vd,[3]; [12],3.29 ± 2.32 L/kg
same,Tmax,[3]; [13],0.25 h
same,Cmax,"[3]; male, plasma, im, rhesus monkey 3M, A7AGBU1010, intramuscular 0.048 mg/kg (0.22 μmol/kg), read-out: Cmax",16.1 ng/mL and 74.6 nM
same,half-life,[3]; [13],0.85 ± 0.23 h
same,estimated peak plasma concentrations,"[3]; monkeys, 0.00048-0.016 mg per kg",0.6 to 18 nM
same,Cmax,"[3]; rhesus monkey, plasma, intramuscular, 0.016 mg/kg, rhesus monkeys, read-out: Cmax at NOAEL for behavioral side effects",18 nM
same,estimated free plasma Cmax,"[3]; rhesus monkeys, 0.016 mg/kg (NOAEL)",18 nM
same,AUC,"Single dose PK/TK, rat; [14]",699 ng·h/mL to 861 ng·h/mL and 3.23 µM·h to 3.98 µM·h
same,Cmax,"Single dose PK/TK, rat; [14]",251 ng/mL to 344 ng/mL and 1.16 µM to 1.59 µM
same,Tmax,"Single dose PK/TK, rat; [14]",0.5 to 1 h
same,AUC,"Single dose PK/TK, rat; [15]",76600 ng·h/mL and 354 µM·h
same,Cmax,"Single dose PK/TK, rat; [15]",4740 ng/mL to 11600 ng/mL and 21.9 µM
same,AUC,"Single dose PK/TK, rat; [16]",49800 ng·h/mL and 230 µM·h
same,Cmax,"Single dose PK/TK, rat; [16]",15.9 µM and 3440 ng/mL
same,AUC,"Single dose PK/TK, rat; [17]",441 ng·h/mL and 2.04 µM·h
same,Cmax,"Single dose PK/TK, rat; [17]",99.9 ng/mL and 462 nM
same,Tmax,"Single dose PK/TK, rat; [17]",1 h
same,AUC,"Single dose PK/TK, rat; [18]",26600 ng·h/mL and 123 µM·h
same,Cmax,"Single dose PK/TK, rat; [18]",2570 ng/mL and 11.9 µM
same,Tmax,"Single dose PK/TK, rat; [18]",1 h
same,AUC,"Single dose PK/TK, rat; [19]",37900 ng·h/mL and 175 µM·h
same,Cmax,"Single dose PK/TK, rat; [19]",4500 ng/mL and 20.8 µM
same,Tmax,"Single dose PK/TK, rat; [19]",1 h
same,AUC,"Single dose PK/TK, rat; [20]",90000 ng·h/mL and 416 µM·h
same,Cmax,"Single dose PK/TK, rat; [20]",6750 ng/mL and 31.2 µM
same,Tmax,"Single dose PK/TK, rat; [20]",1 h
same,F,"Single dose PK/TK, rat; rat 1M+1F, DMR4, oral 2.16 mg/kg vs iv 1.08 mg/kg",78-84%
same,plasma concentrations,"Single dose PK/TK, rat; rat, 1 mg per kg (minimum effective dose in fimbria fornix model)",290 to 1400 nM
same,estimated plasma concentrations,"Single dose PK/TK, rat; rats, extended to mice, 0.001-0.1 mg per kg",0.29 to 100 nM
same,inhibition of Pgp mediated digoxin transport,Pgp transporter,did not significantly inhibit
same,decrease of digoxin transport,Pgp transporter; 10.8 μg/mL (50 μM),11%
same,NOAEL,[4],5.6 mg/kg
same,functional potency at α7 versus 5-HT3A/B receptors,[5],equipotent
same,"concentration with significant prolongation of APD50, APD70 and APD90",dog Purkinje fibre,≥ 5600 nM
